The source of these data is US4450234A, “Antibiotic C-15003 PHM and production thereof” (Takeda Chemical Industries, Ltd., priority 1979, dated 1984).

In brackets after ≈: the same amount, converted by molar mass.

Series [1] can be described thus: Neutral lipophilic character. The series is classed as physicochemical.
Series [2] deals with Tetrahymena pyriformis W. The series is described as follows: Antiprotozoan growth inhibition, serial broth dilution method. The class given is cell-based. The conditions noted are these: 44 h, 28° C., 44 to 48 hours, pH 7.0, serial broth dilution, read-out: growth inhibitory concentration. The procedure: In addition, using Tetrahymena pyriformis W strain as the test organism and the assay medium composed of 20 g proteose peptone (Difco, U.S.A.), 1 g yeast extract, 2 g glucose, 1000 ml distilled water and 10 ml 1 M phosphate buffer, pH 7.0, cultivation was carried out at 28° C. for 44 to 48 hours and the growth inhibitory concentration of the antibiotic was determined by the serial broth dilution method.
Tetrahymena pyriformis W, as the test organism, was cultivated on an assay medium [20 g of proteose-peptone (Difco, U.S.A.), 1 g of yeast extract, 2 g of glucose, 1000 ml of distilled water, 10 ml of 1 M phosphate buffer, pH 7.0] at 28° C. for 44 to 48 hours and the growth inhibitory activity of the compound against the above-mentioned strain was assayed by the serial dilution method.
Background: Broth dilution looks for growth in wells or tubes with falling amounts of substance.

Series [3] has as its system Klebsiella pneumoniae. Kind of series: Antibacterial activity, paper disk method. The series is classed as cell-based. Particulars: paper disk 8 mm, 0.02 ml of 300 μg/ml solution, Trypticase-soy-agar. The procedure: (§1) Using Trypticase-soy-agar (Baltimore Biologicals, U.S.A.) as the assay medium, the growth inhibitory concentrations of the compound against the various microorganisms named hereinbelow were determined by the paperdisk method. Thus, on plate media containing the following microorganisms, respectively, minimal inhibitory concentrations were determined using paper disks imbibed with 0.02 ml of a 300 μg/ml solution of PHM-3 or PHM-4 (disks, Toyo Seisakusho, Japan, thin-type, diam. 8 mm).
(§2) Escherichia coli, Proteus vulgaris, Proteus mirabilis, Pseudomonas aeruginosa, Staphylococcus aureus, Bacillus subtilis, Bacillus cereus, Klebsiella pneumoniae, Serratia marcessence, Mycobacterium avium.
(§3) Using Trypticase-soy-agar (Baltimore Biologicals, U.S.A.) as the test medium, the growth inhibitory activity of the compound against the organisms named below was assayed by the paper disk method. Thus, on the plate media each containing one of the undermentioned organisms, the activity of the compound was tested using paper disks (Toyo Seisakusho, Japan, thin type, diam. 8 mm) imbibed with 0.02 ml of a 300 μg/ml solution of PHM-3-acetate.
(§4) Escherichia coli, Proteus vulgaris, Proteus mirabilis, Pseudomonas aeruginosa, Staphylococcus aureus, Bacillus subtilis, Bacillus cereus, Klebsiella pneumoniae, Serratia marcescence, Mycobacterium avium.

For series [4], the system named is Staphylococcus aureus. Kind of series: Antibacterial activity, paper disk method. The series is classed as cell-based. The conditions noted are these: paper disk 8 mm, 0.02 ml of 300 μg/ml solution, Trypticase-soy-agar. The procedure: as §1, §2, §3, §4
Series [5] relates to Bacillus subtilis. The series is described as follows: Antibacterial activity, paper disk method. The series is classed as cell-based. The conditions noted are these: paper disk 8 mm, 0.02 ml of 300 μg/ml solution, Trypticase-soy-agar. As to the method:
as §1, §2, §3, §4

The test system of series [6] is Serratia marcessence. Kind of series: Antibacterial activity, paper disk method. The series is classed as cell-based. Particulars: paper disk 8 mm, 0.02 ml of 300 μg/ml solution, Trypticase-soy-agar. As to the method:
as §1, §2, §3, §4

Series [7] has as its system Escherichia coli. The series is described as follows: Antibacterial activity, paper disk method. Particulars: paper disk 8 mm, 0.02 ml of 300 μg/ml solution, Trypticase-soy-agar. The series is classed as cell-based. The procedure: as §1, §2, §3, §4
Series [8] has as its system Proteus mirabilis. The series is described as follows: Antibacterial activity, paper disk method. The series is classed as cell-based. Particulars: paper disk 8 mm, 0.02 ml of 300 μg/ml solution, Trypticase-soy-agar. As to the method:
as §1, §2, §3, §4

The test system of series [9] is Bacillus cereus. Kind of series: Antibacterial activity, paper disk method. The series is classed as cell-based. Particulars: paper disk 8 mm, 0.02 ml of 300 μg/ml solution, Trypticase-soy-agar. As to the method: as §1, §2, §3, §4
The test system of series [10] is Pseudomonas aeruginosa. Kind of series: Antibacterial activity, paper disk method. The class given is cell-based. Particulars: paper disk 8 mm, 0.02 ml of 300 μg/ml solution, Trypticase-soy-agar. The procedure:
as §1, §2, §3, §4

The test system of series [11] is Proteus vulgaris. Kind of series: Antibacterial activity, paper disk method. The class given is cell-based. Particulars: paper disk 8 mm, 0.02 ml of 300 μg/ml solution, Trypticase-soy-agar. The procedure: as §1, §2, §3, §4
Series [12] has as its system Mycobacterium avium. The series is described as follows: Antibacterial activity, paper disk method. Particulars: paper disk 8 mm, 0.02 ml of 300 μg/ml solution, Trypticase-soy-agar. The class given is cell-based. The procedure:
as §1, §2, §3, §4

Series [13] deals with Nocardia sp. No. N-1231. Kind of series: Antibiotic resistance of No. N-1231 strain. The class given is cell-based.

Turning to `COc1cc2cc(c1Cl)N(C)C(=O)CC(O)C1(C)OC1C(C)C1CC(O)(NC(=O)O1)C(OC)/C=C/C=C(\C)C2` (stereo not drawn) [P-0, maytansinol], the “neutral lipophilic / fat-soluble character” value in series [1] was “neutral lipophilic”.

On to `COc1cc2cc(c1Cl)N(C)C(=O)CC(OC(C)=O)C1(C)OC1C(C)C1CC(O)(NC(=O)O1)C(OC)C=CC=C(C)C2` (stereo not drawn) [P-1, maytanacine], for which, in series [1], the “neutral lipophilic / fat-soluble character” value is “neutral lipophilic”.

Turning to `CCC(=O)OC1CC(=O)N(C)c2cc(cc(OC)c2Cl)CC(C)=CC=CC(OC)C2(O)CC(OC(=O)N2)C(C)C2OC12C` (stereo not drawn) [P-2, maytansinol propionate], the “neutral lipophilic / fat-soluble character” value in series [1] was “neutral lipophilic”.

For `COc1cc2cc(c1Cl)N(C)C(=O)CC(OC(=O)C(C)C)C1(C)OC1C(C)C1CC(O)(NC(=O)O1)C(OC)C=CC=C(COC(C)=O)C2` (stereo not drawn) [PHM-3-acetate], the MIC in [2] was determined as 8 µg/mL (≈ 11.5 µM). For the same compound, the “activity (growth inhibition)” value in series [3], in series [4], in [5], in [6], in series [7] and in series [8] was “failed to show activity” each time. Further, the “activity (growth inhibition)” value in series [9], in series [10], in series [11] and in series [12] was “failed to show activity” each time.

As for `COc1cc2cc(c1Cl)N(C)C(=O)CC(OC(=O)C(C)C)C1(C)OC1C(C)C1CC(O)(NC(=O)O1)C(OC)C=CC=C(CO)C2` (stereo not drawn) [PHM-3], the MIC in [2] came to 40 µg/mL (≈ 61.4 µM). Besides, the “activity (growth inhibition)” value in series [3], in series [4], in series [5], in series [6], in series [7] and in [8] was “no activity” in each case. Also, the “activity (growth inhibition)” value in series [9], in [10], in series [11] and in series [12] was “no activity” each time.

`COc1cc2cc(c1Cl)N(C)C(=O)CC(OC(=O)CC(C)C)C1(C)OC1C(C)C1CC(O)(NC(=O)O1)C(OC)C=CC=C(CO)C2` (stereo not drawn) [PHM-4]: the MIC in series [2] was found to be 40 µg/mL (≈ 60.1 µM). The “activity (growth inhibition)” value in series [3], in series [4], in series [5], in [6], in series [7] and in series [8] was “no activity” in each case. In addition, the “activity (growth inhibition)” value in [9], in series [10], in series [11] and in series [12] was “no activity” throughout.

For `CCC[C@@H]1C[C@@H](C(=O)N[C@@H]([C@H]2O[C@H](SC)[C@H](O)[C@@H](O)[C@H]2O)[C@@H](C)O)N(C)C1` [lincomycin], in series [13], the “resistance of No. N-1231 strain” value is “resistant”.

Turning to `CC1(C)S[C@@H]2[C@H](NC(=O)Cc3ccccc3)C(=O)N2[C@H]1C(=O)O` [penicillin G], the “resistance of No. N-1231 strain” value in series [13] was “resistant”.

Take `[H]/N=C(/N)N[C@H]1[C@H](O)[C@@H](O)[C@H](O[C@@H]2O[C@@H](C)[C@](O)(C=O)[C@H]2O[C@@H]2O[C@@H](CO)[C@H](O)[C@@H](O)[C@@H]2NC)[C@@H](N/C(N)=N\[H])[C@@H]1O` [streptomycin]: the “resistance of No. N-1231 strain” value in [13] is listed as “resistant”.
